According to PubChem BioAssay AID2060896 (Molecular Pharmacology Branch, DTP, NCI, 2025):
“And” between values parts separate entries of the source, which are not always exact repeats. Equal values may be shown once.

Tested on: 941728-121-R-J1-PDC complex spheroid viability
Assay: Anticancer human tumor 941728-121-R-J1-PDC patient-derived lung adenocarcinoma cell line growth inhibition [RAS]
Conditions: for viability, T/C: stronger effect = lower value
Method in brief: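 Multi-cell-type spheroids: tumor cells plus HUVEC endothelial cells and mesenchymal stem cells. RAS-pathway inhibitors were combined with targeted agents, each dosed in half-log steps down from clinical Cmax, or from 10 microM when Cmax was unknown.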
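Also: spheroids exposed to compounds for 7 days before readout.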
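For viability, T/C in this document: 100% = DMSO vehicle control viability.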

## CC(=O)OC12COC1CC(O)C1(C)C(=O)C(O)C3=C(C)C(OC(=O)C(O)C(NC(=O)OC(C)(C)C)c4ccccc4)CC(O)(C(OC(=O)c4ccccc4)C21)C3(C)C (configuration not stated) + CCn1c(-c2cccnc2C(C)OC)c2c3cc(ccc31)N1CCOC(CC(NC(=O)C(C(C)C)N(C)C(=O)C3(F)CCN(C(=O)C#CC(C)(C)N(C)C)CC3)C(=O)N3CCCC(N3)C(=O)OCC(C)(C)C2)C1
Curve of first compound, second compound 0.000949 µM
  IC50: < 0.0316 µM
Curve of first compound, second compound 0.003 µM
  IC50: < 0.0316 µM
Curve of first compound, second compound 0.00949 µM
  IC50: < 0.0316 µM
Curve of first compound, second compound 0.03 µM
  IC50: < 0.0316 µM
Curve of first compound, second compound 0.0949 µM
  IC50: < 0.0316 µM
Curve of first compound, second compound 0.3 µM
  IC50: < 0.0316 µM
Second compound 0.000949 µM, first compound 0.0316 µM
  viability, T/C: 18.3%
Second compound 0.000949 µM, first compound 0.1 µM
  viability, T/C: 15.4%
Second compound 0.000949 µM, first compound 0.316 µM
  viability, T/C: 11.9%
Second compound 0.000949 µM, first compound 1 µM
  viability, T/C: 15.6%
Second compound 0.000949 µM, first compound 3.16 µM
  viability, T/C: 15.1%
Second compound 0.000949 µM, first compound 10 µM
  viability, T/C: 14.2%
Second compound 0.003 µM, first compound 0.0316 µM
  viability, T/C: 17.3%
Second compound 0.003 µM, first compound 0.1 µM
  viability, T/C: 15.6%
Second compound 0.003 µM, first compound 0.316 µM
  viability, T/C: 13.1%
Second compound 0.003 µM, first compound 1 µM
  viability, T/C: 14.4%
Second compound 0.003 µM, first compound 3.16 µM
  viability, T/C: 14.9%
Second compound 0.003 µM, first compound 10 µM
  viability, T/C: 11.1%
Second compound 0.00949 µM, first compound 0.0316 µM
  viability, T/C: 16.9%
Second compound 0.00949 µM, first compound 0.1 µM
  viability, T/C: 13.9%
Second compound 0.00949 µM, first compound 0.316 µM
  viability, T/C: 13.1%
Second compound 0.00949 µM, first compound 1 µM
  viability, T/C: 13.8%
Second compound 0.00949 µM, first compound 3.16 µM
  viability, T/C: 12.7%
Second compound 0.00949 µM, first compound 10 µM
  viability, T/C: 12.7%
Second compound 0.03 µM, first compound 0.0316 µM
  viability, T/C: 17.6%
Second compound 0.03 µM, first compound 0.1 µM
  viability, T/C: 16.2%
Second compound 0.03 µM, first compound 0.316 µM
  viability, T/C: 14.4%
Second compound 0.03 µM, first compound 1 µM
  viability, T/C: 13%
Second compound 0.03 µM, first compound 3.16 µM
  viability, T/C: 14.6%
Second compound 0.03 µM, first compound 10 µM
  viability, T/C: 16.3%
Second compound 0.0949 µM, first compound 0.0316 µM
  viability, T/C: 15.9%
Second compound 0.0949 µM, first compound 0.1 µM
  viability, T/C: 15.1%
Second compound 0.0949 µM, first compound 0.316 µM
  viability, T/C: 16.1%
Second compound 0.0949 µM, first compound 1 µM
  viability, T/C: 15.3%
Second compound 0.0949 µM, first compound 3.16 µM
  viability, T/C: 13.6%
Second compound 0.0949 µM, first compound 10 µM
  viability, T/C: 17.3%
Second compound 0.3 µM, first compound 0.0316 µM
  viability, T/C: 16.8%
Second compound 0.3 µM, first compound 0.1 µM
  viability, T/C: 17.5%
Second compound 0.3 µM, first compound 0.316 µM
  viability, T/C: 16.6%
Second compound 0.3 µM, first compound 1 µM
  viability, T/C: 15.9%
Second compound 0.3 µM, first compound 3.16 µM
  viability, T/C: 15.8%
Second compound 0.3 µM, first compound 10 µM
  viability, T/C: 16.9%

## CCC(CC)c1cc(NC2CCC(N)C2)n2nccc2n1 (configuration not stated)
Compound 0.1 µM
  viability, T/C: 105% [middle of 4 runs]
Compound 0.316 µM
  viability, T/C: 95.6% [middle of 4 runs]
Compound 3.16 µM
  viability, T/C: 30.5% [middle of 4 runs]
Compound 10 µM
  viability, T/C: 44% [middle of 4 runs]
Curve of compound
  IC50: 2.03 µM and 2.53 µM and 2.05 µM
